Results: EP0103895A2, “Novel hydroxylamine derivatives, production and use thereof” (MEIJI SEIKA KABUSHIKI KAISHA, priority 1982, dated 1984)

Assays:
[1] = system: Liver fluke; Fasciola hepatica (F. hepatica); test: Test of anthelmintic effect against rat infected experimentally with liver fluke (Test Examples A11, B11, C11, D11); assay type: in vivo; design: key to Presence or absence of fluke egg in fecal matter On 21st day after the last administration: +: indicates detection of fluke egg; -: indicates no detection; settings: rats, 50 mg/Kg x 5 orally, one value per rat; for Condition of fluke body: autopsy, liver, "Denatured" = fluke body is alive but a part of fluke body has changed
Source text: Twenty-eight (28) rats were employed in fourteen groups each of two rats, each rat being infected with 5 metacercariae of Liver fluke; Fasciola he^patica (F.. hepatica) and confirmed to have worm eggs on the 75th day after infection according to fecal matter testing.
Judgement of the effect was made by the presence or absence of the worm gees in the fecal matter on the 21st day after the last administration and by examination according to autopsis as to whether the worm bodies were dead or alive in the liver.
The same as that in Test Example All, but eight (8) rats were employed by grouping them into groups each of two rats, each rat being infected with 5 metacercariae of liver fluke and confirmed to have fluke eggs on the 75th day after infection according to fecal matter testing.
The compounds provided for the tests were Compound Nos. Bl, B8 and B19.
The same as that in Test Example All, but six (6) rats were employed by grouping them into groups each of two rats, each rat being infected with 5 metacercariae of Fasciola hepatica and confirmed to have worm eggs on the 75th day after infection according to fecal matter testing.
The compounds provided for the tests were Compound Nos. C2 and C6.
The same as that in Test Example All, but the compounds provided for tests were Compound Nos. D14, D15 and D16.

[2] = system: fowl roundworm (As. galli); test: Anthelmintic test in chickens artificially infected with fowl roundworm, compound added to feed, E.P.G. and worm count up to 21st day (Test Examples A2, B2, C2, D2); assay type: in vivo, Ascaridia galli; settings: Ascaridia galli, po, 504 h, chickens, worm count on 21st day, one value per chicken, read-out: Anthelmintic effect; for inhibition in vivo at 10 ppm: 10 ppm added to feed; for inhibition in vivo at 50 ppm: 50 ppm added to feed
Method: Chickens artificially infected with fowl roundworm (As. galli) were employed in groups each of two chickens.
Fecal matter testing was conducted before initiation of the test and on the 7th, 14th and 21st day after initiation of the test. Reduction in worm egg number was examined by calculating E.P.G. (worm eggs per 1 g of fecal matter), and the number of discharged worm bodies and the number of worm bodies remaining in the enteron when the chicken was killed on 21st day were counted to determine the anthelmintic percentage, from which the anthelmintic effect was judged.

[3] = system: fowl roundworm (As. galli); test: Anthelmintic test in chickens infected with fowl roundworm, compound added to feed at 250 ppm and 1,000 ppm, E.P.G. and worm count on 5th day (Test Example E2); assay type: in vivo, Ascaridia galli; settings: for E.P.G. after 5 days: worm egg number in 1 g of fecal matter; for anthelmintic effect / inhibition in vivo at 250 ppm / inhibition in vivo at 1000 ppm: 5th day; for inhibition in vivo at 250 ppm / inhibition in vivo at 1000 ppm: Ascaridia galli, feed or water, 120 h, read-out: Anthelmintic effect
Method: Chickens infected with fowl roundworm (As. galli) were employed in groups each of two chickens.
The compound provided for the test was dissolved in a small amount of ethyl alcohol and adsorbed on defatted rice bran and added to chicken feed at levels of 250 ppm and 1,000 ppm. As control, a feed containing no such compound was employed.
Fecal matter testing was conducted before initiation of the test and on the 5th day after initiation of the test. The reduction in worm egg count was examined by calculating the E.P.G. (worm egg number in 1 g of fecal matter). The number of discharged worm bodies and the number of worm bodies remaining in the enteron when the chicken was killed on 5th day were counted to determined the anthelmintic percentage, from which the anthelmintic effect was judged.

[4] = system: fowl roundworm (As. galli); test: Anthelmintic test in chickens infected with fowl roundworm, single oral dose of 40 mg per Kg, worm bodies counted within 24 hours (Test Example E1); assay type: in vivo, Ascaridia galli; settings: 40 mg per Kg oral in gelatin capsule; for inhibition in vivo at 40 mg/kg: Ascaridia galli, 24 h, chicken No.1, read-out: Anthelmintic effect after one day
Method: Chickens infected with fowl roundworm (As. galli) were employed in groups each consisting of five chickens. The compound provided for testing was orally administered in a quantity of 40 mg per Kg of body weight to each chicken in a gelatin capsule. The number of worm bodies discharged within 24 hours after administration of the medicine was counted. Then the chicken was killed, and the number of worm bodies remaining in the enteron was counted to determine the anthelmintic percentage, wherefrom the anthelmintic effect was judged.

[5] = 1000 ppm in feed, chicken No. 1
[6] = 1000 ppm in feed, chicken No. 2

Structure (SMILES) | Condition of fluke body [1] | Presence or absence of fluke egg in fecal matter On 21st day after the last administration [1] | inhibition in vivo at 10 ppm [2] [%] | inhibition in vivo at 50 ppm [2] [%] | Condition of fluke body ([1]; 50 mg/kg) | E.P.G. after 5 days ([3]; 250 ppm in feed, chicken No. 1) | anthelmintic effect ([3]; 250 ppm in feed, chicken No. 2) | E.P.G. after 5 days ([3]; 250 ppm in feed, chicken No. 2) | E.P.G. after 5 days [3, 5] | anthelmintic effect [3, 6] | E.P.G. after 5 days [3, 6] | inhibition in vivo at 250 ppm ([3]; 250 ppm in feed, chicken No. 1) [%] | inhibition in vivo at 1000 ppm [3, 5] [%] | inhibition in vivo at 40 mg/kg [4] [%] | Anthelmintic effect after one day ([4]; chicken No.2) | Anthelmintic effect after one day ([4]; chicken No.3) | Anthelmintic effect after one day ([4]; chicken No.4) | Anthelmintic effect after one day ([4]; chicken No.5)
C#CCN(OCC)C(C)=O [Compound A2, N-propargyl-N-acetyl-O-ethylhydroxylamine] | dead | - | 80 to 90 | 100 |  |  |  |  |  |  |  |  |  |  |  |  |  | 
C#CCN(OCC=CC)C(C)=O [Compound A4, N-propargyl-N-acetyl-O-crotylhydroxylamine] | dead | - | 80 to 90 | 100 |  |  |  |  |  |  |  |  |  |  |  |  |  | 
C#CCN(OCC=C)C(=O)CC [Compound A5, N-propargyl-N-propionyl-0-allylhydroxylamine] | dead | - | 80 to 90 | 100 |  |  |  |  |  |  |  |  |  |  |  |  |  | 
C#CCN(OCC=C)C(=O)CCC [Compound A6, N-propargyl-N-butylyl-O-allylhydroxylamine] |  | - | 100 | 100 | dead and denatured |  |  |  |  |  |  |  |  |  |  |  |  | 
C#CCN(OCC=C)C(=O)CCCC [Compound A7, N-propargyl-N-valeroyl-O-allylhydroxylamine] | dead | - | 80 to 90 | 100 |  |  |  |  |  |  |  |  |  |  |  |  |  | 
C#CCN(OCC=C)C(=O)CCCCCCC/C=C\CCCCCCCC [Compound A8, N-propargyl-N-oleoyl-O-allylhydroxylamine] | dead | - | 100 | 100 |  |  |  |  |  |  |  |  |  |  |  |  |  | 
C#CCON(CC#C)C(=O)CCCCCCC/C=C\CCCCCCCC [Compound E6, N,O-dipropargyl-N-oleoylhydroxylamine] |  |  |  |  |  | 0 | +++ (100%) | 0 | 0 | +++ (100%) | 0 | 100 | 100 | 100 | +++ (100%) | +++ (100%) | +++ (100%) | +++ (100%)
C#CCON(CC#C)C(=O)c1ccccc1 [Compound E7, N,O-dipropargyl-N-benzoylhydroxylamine] |  |  |  |  |  | 0 | +++ (100%) | 0 | 0 | +++ (100%) | 0 | 100 | 100 | 100 | +++ (100%) | +++ (100%) | +++ (100%) | +++ (100%)
C#CCON(CC#C)C(=O)c1ccccc1Cl [Compound E8, N,O-dipropargyl-N-O-chlorobenzoylhydroxylamine] |  |  |  |  |  | 0 | +++ (100%) | 0 | 0 | +++ (100%) | 0 | 100 | 100 | 100 | +++ (100%) | +++ (100%) | +++ (100%) | +++ (100%)
C#CCON(C=O)CC#C [Compound E9, N,O-dipro- pargyl-N-formylhydroxylamine] |  |  |  |  |  | 0 | +++ (100%) | 0 | 0 | +++ (100%) | 0 | 100 | 100 | 100 | +++ (100%) | +++ (100%) | +++ (100%) | +++ (100%)
C#CCON(CC#C)C(=O)CCCCCCCCCCC [Compound E10, N,O-dipropargyl-N-lauroylhydroxylamine] |  |  |  |  |  | 0 | +++ (100%) | 0 | 0 | +++ (100%) | 0 | 100 | 100 | 100 | +++ (100%) | +++ (100%) | +++ (100%) | +++ (100%)
C#CCON(CC#C)C(=O)CCCCCCCCCCCCCCCCC [Compound E11, N,O-dipropargyl-N-stearoyl- hydroxylamine] |  |  |  |  |  | 0 | +++ (100%) | 0 | 0 | +++ (100%) | 0 | 100 | 100 | 100 | +++ (100%) | +++ (100%) | +++ (100%) | +++ (100%)
